Source: patent publication US7629141B2, “Essential and important genes of Pseudomonas aeruginosa and the use thereof to design or identify antibacterial agents” (priority 2001, dated 2009)

What was measured:
[1] = tested on: EnvA1 mutant protein (LpxC, His 19 replaced by Serine); settings: His 19 replaced by a Serine; cited from earlier work
E. coli LpxC enzyme = E. coli LpxC enzyme (Escherichia coli, UniProt P0A725); settings: cited from earlier work
LpxC from P. aeruginosa = LpxC from P. aeruginosa (Pseudomonas aeruginosa, UniProt P47205); settings: cited from earlier work
P. aeruginosa = settings: cited from earlier work
E. coli [2] = settings: cited from earlier work
E. coli DH5α = test: Growth curves with inhibitor, E. coli; format: cell-based
Protocol: (§3) Growth curves. Bacterial cultures were prepared by diluting stationary phase overnight cultures to an OD600 of 0.1 in 5 ml of LB. The inhibitor, L-161,240, was resuspended in DMSO to a final concentration of 10 mg/ml and added to the bacterial cultures to a final concentration of 50 μg/ml or 10 μg/ml. In the samples without inhibitor, DMSO was added to keep the final concentration of DMSO equivalent between samples. The cultures were incubated with shaking and 0.8 ml was taken for OD600 readings over the course of the experiment.

P. aeruginosa PA01 [3] = tested on: P. aeruginosa PA01
Protocol: Polymixin B nonapeptide (Sigma) was prepared as a suspension in DMSO at 3 mg/ml final concentration. Erythromycin and Tetracycline were resuspended in DMSO to a final concentration of 250 mg/ml and 125 mg/ml, respectively. L-161,240 was prepared as above in DMSO to a final concentration of 10 mg/ml. These DMSO antibiotic solutions were individually added to LB to the appropriate final concentration and mixed. Polymixin B nonapeptide was then added to the appropriate samples and mixed. DMSO was added to each sample to keep the final concentration of DMSO equivalent between samples. A stationary phase overnight culture of PA01 was added to each sample to bring the final concentration to 0.1 OD600. Samples were removed for OD600 determinations every 1-2 hours for 6.5 hours and the data from these time points were plotted.
In order to determine the effect of outer membrane exclusion of L-161,240, we exposed P. aeruginosa to PMBN in combination with L-161,240, and with other lipophilic antibiotics as positive controls.

[4] = tested on: E. coli JBK-1 carrying lpxC from P. aeruginosa
Protocol: (§1) Growth curves. Bacterial cultures were prepared by diluting stationary phase overnight cultures to an OD600 of 0.1 in 5 ml of LB. […] The cultures were incubated with shaking and 0.8 ml was taken for OD600 readings over the course of the experiment. DH5α, PA01, and PA0200 (Schweizer, H. P. 1998. Intrinsic resistance to inhibitors of fatty acid biosynthesis in Pseudomonas aeruginosa is due to efflux: application of a novel technique for generation of unmarked chromosomal mutations for the study of efflux systems. Antimicrob. Agents Chemother. 42: 394-398) were all grown at 37° C. In the cases where temperature sensitive JBK strains were being assayed, the cultures were grown at 42° C. for both the overnight and the time course cultures.
(§2) The E. coli strain JBK-1/pKD6 contains the chromosomal lpxC gene disrupted with a kan element and a wild type copy of E. coli lpxC on the temperature-sensitive replicon pKD6. The strain was constructed as described by Sorensen et al., 1996. Since lpxC is essential for growth, this strain is not viable at 42° C. because the functional copy is on the temperature sensitive replicon.

[5] = tested on: P. aeruginosa PAO 200 (MexAB-OprM efflux mutant); test: Growth curves with inhibitor, efflux pump mutant; format: cell-based; settings: FIG. 4
Excerpt: L-161, 240 is a substrate for the major drug efflux pump of P. aeruginosa. […] However the only one that is constitutively expressed to a high degree in the wild type strains is MexAB-OprM (Kohler, T., M. Michea-Hamzehpour, and U. Henze. 1997. Characterization of MexE-MexF-OprN, a positively regulated multidrug efflux system of Pseudomonas aeruginosa. Mol. Microbiol. 23: 345-354). Therefore, mutants of this efflux system can be used to evaluate the consequences of diminished efflux pump activity. These mutants would be expected to be highly sensitive to a number of antibiotics.

[6] = tested on: 'promoter swapped' P. aeruginosa lpxC mutants; test: MIC determinations for 'promoter swapped' mutants; format: cell-based
Protocol: MIC determinations for ‘promoter swapped’ mutants. Single colonies of DH5α, PA01 and each promoter swap strain were picked and grown in LB at 37° C. with shaking for approximately 4 hours. Assuming that an OD600 reading of 1.0 is equivalent to 10^9 cells/ml, dilutions were made of all cultures to 5×10^5 cells/ml. 200 μl of each diluted culture was added to each well where a two-fold serial dilution of inhibitor had been placed. The 96-well plates were incubated at 37° C. overnight and their OD600 determined using the Spectramax Plus (Molecular Devices) plate reader.
To confirm the effect of the arabinose-sensitive promoter in regulating the lpxC expression in the swapped mutants, MIC determinations were performed as above, except that arabinose was added to induce expression of the chromosomal locus and override the effects of the plasmid borne lpxC. In this case the stationary-phase overnight bacterial culture was diluted to 5×10^5 cells/ml in LB containing Arabinose to a final concentration of 0.2% (a 20% stock made up in water).
Using the ‘promoter swap’ technique as described in the methods, it was possible to replace expression from the wild type chromosomal copy of P. aeruginosa lpxC, with expression solely from a plasmid borne copy. […]

E. coli [7] = settings: lethal intraperitoneal dose of E. coli; cited from earlier work
[8] = tested on: E. coli JBK-1 carrying lpxC from E. coli; test: Growth at 42° C. of E. coli JBK-1 carrying the lpxC copy from E. coli; format: cell-based; settings: data not shown
Protocol: as §1, §2

P. aeruginosa PA01 [9] = test: Growth curves with inhibitor, P. aeruginosa wild type; format: cell-based
Protocol: as §3

Sequence of LpxC from P. aeruginosa (P47205 whole entry): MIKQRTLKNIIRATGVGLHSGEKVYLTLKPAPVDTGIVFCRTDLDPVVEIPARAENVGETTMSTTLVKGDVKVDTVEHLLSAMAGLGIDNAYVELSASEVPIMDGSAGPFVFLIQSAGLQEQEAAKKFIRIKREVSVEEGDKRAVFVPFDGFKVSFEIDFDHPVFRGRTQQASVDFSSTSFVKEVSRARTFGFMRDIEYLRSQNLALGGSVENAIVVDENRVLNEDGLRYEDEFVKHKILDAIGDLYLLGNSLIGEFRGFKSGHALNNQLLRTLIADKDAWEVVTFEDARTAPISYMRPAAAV
Sequence of E. coli LpxC enzyme (P0A725 whole entry): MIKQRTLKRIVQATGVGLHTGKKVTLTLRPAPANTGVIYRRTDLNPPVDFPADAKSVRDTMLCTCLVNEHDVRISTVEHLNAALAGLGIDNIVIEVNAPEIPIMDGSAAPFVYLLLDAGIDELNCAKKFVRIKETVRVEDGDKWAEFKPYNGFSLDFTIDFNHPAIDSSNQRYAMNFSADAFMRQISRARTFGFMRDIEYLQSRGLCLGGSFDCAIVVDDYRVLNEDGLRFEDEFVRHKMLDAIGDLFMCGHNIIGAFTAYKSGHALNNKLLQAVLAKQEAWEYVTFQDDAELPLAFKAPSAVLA

In the case of `O=C(O)CN(CCN(CC(=O)O)CC(=O)O)CC(=O)O` [EDTA], the “sensitivity of envA1 mutant LpxC to EDTA” value [1] is listed as “sensitive”, the “sensitivity of E. coli LpxC enzyme to EDTA” value (E. coli LpxC enzyme) is listed as “not sensitive” and the “EDTA concentration significantly inhibiting P. aeruginosa LpxC enzyme” value (LpxC from P. aeruginosa) is listed as ≤ 2 µM.
In the case of `CCCc1cc(C2=N[C@@H](C(=O)NO)CO2)cc(OC)c1OC` [L-161,240], the “effect on bacterial growth of P. aeruginosa” value (P. aeruginosa) is given as “no effect on bacterial growth”, the “minimal inhibitory concentration against E. coli” value (E. coli [2]) is given as “about 1 microgram per milliliter” and the “prevention of growth of E. coli” value (E. coli DH5α) is given as “effective in preventing growth”. For the same molecule, the “sensitivity of P. aeruginosa in combination with PMBN” value (P. aeruginosa PA01 [3]) was “remained unchanged”, the “inhibition of LpxC from P. aeruginosa” value (LpxC from P. aeruginosa) was “only at very high concentrations, and even then it did so poorly” and the “inhibitor concentration to which JBK-1 carrying P. aeruginosa lpxC is resistant” value ([4]; 42° C., data not shown) was > 50 µg/mL. For the same molecule, the “resistance level relative to the MIC of the wild type organisms” value ([4]; JBK-1 carrying P. aeruginosa lpxC) was “about 50 times”, the “sensitivity of efflux mutant PAO 200 compared with wild type” value [5] was “not more sensitive” and the “sensitivity of all promoter swap transformants with chromosomal lpxC induced” value ([6]; LB containing 0.2% arabinose, vector with E. coli or P. aeruginosa lpxC) was “resistant to killing”. For the same molecule, the “sensitivity of P. aeruginosa expressing only E. coli LpxC versus wild type / P. aeruginosa enzyme” value ([6]; promoter swap, native lpxC shut off, plasmid-borne E. coli lpxC, no arabinose) was “much more sensitive”, the “outcome in mice infected with lethal dose of E. coli” value (E. coli [7]) was “cured” and the “sensitivity of JBK-1 carrying E. coli lpxC to killing” value [8] was “still sensitive to killing by a slightly higher concentration”. The “prevention of growth of P. aeruginosa” value (P. aeruginosa PA01 [9]) was “completely ineffective”.
With `CN(C)[C@@H]1C(O)=C(C(N)=O)C(=O)[C@@]2(O)C(O)=C3C(=O)c4c(O)cccc4[C@@](C)(O)[C@H]3C[C@@H]12` [tetracycline] the “lowering of MIC for P. aeruginosa by PMBN” value (P. aeruginosa PA01 [3]) was “more than 16 fold”.
